Laboratory results from patent publication US20090312349A1, “ANTI-INFLAMMATORY MEDICAMENTS” (priority 2004, published 2009).

What was measured:
Type in all cases: biochemical
Abl kinase = target: T1, Abl kinase (Homo sapiens, UniProt P00519); assay: Abl kinase assay A1; conditions: read-out: Results, % @ concentration μM, Method A1; @ 10 μM
T1 sequence (P00519 229-512): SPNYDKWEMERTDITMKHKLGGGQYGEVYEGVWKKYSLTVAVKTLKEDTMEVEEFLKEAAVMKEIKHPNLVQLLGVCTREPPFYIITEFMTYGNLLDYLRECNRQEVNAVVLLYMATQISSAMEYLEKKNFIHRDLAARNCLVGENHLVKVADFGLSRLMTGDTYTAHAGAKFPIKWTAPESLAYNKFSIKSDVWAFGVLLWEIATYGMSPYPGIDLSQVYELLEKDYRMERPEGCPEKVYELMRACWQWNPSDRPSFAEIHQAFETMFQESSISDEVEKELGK
Method: (§1) IC50 values were calculated from a series of percent inhibition values determined at a range of inhibitor concentrations using software routines as implemented in the GraphPad Prism software package.

B-Raf(V599E) kinase = B-Raf(V599E) kinase (Homo sapiens, UniProt P15056, V600E); assay: B-Raf(V599E) kinase assay B1; conditions: for IC50: Method B1, construct 1
B-Raf(V599E) kinase, sequence (P15056 with tags, fused parts or gaps V600E): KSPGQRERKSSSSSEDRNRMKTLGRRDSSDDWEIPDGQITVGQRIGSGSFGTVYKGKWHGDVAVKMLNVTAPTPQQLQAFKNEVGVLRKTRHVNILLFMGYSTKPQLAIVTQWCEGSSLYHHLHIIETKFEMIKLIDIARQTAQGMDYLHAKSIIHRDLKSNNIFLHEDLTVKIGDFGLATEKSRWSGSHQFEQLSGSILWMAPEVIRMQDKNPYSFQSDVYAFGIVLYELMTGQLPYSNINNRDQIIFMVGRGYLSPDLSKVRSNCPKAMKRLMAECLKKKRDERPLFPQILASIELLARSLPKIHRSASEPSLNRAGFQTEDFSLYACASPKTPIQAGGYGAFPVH
Method: The test compounds were incubated with the reaction mixture at 30° C. for 2 h. […] The reaction rate was calculated using the 1.5 h to 2.5 h time frame. […] IC50 values were calculated from a series of percent inhibition values determined at a range of inhibitor concentrations using software routines as implemented in the GraphPad Prism software package.

[1] = target: T2, phospho p-38 alpha kinase (Homo sapiens, UniProt Q16539); assay: P-38 alpha kinase assay (spectrophotometric, pyruvate kinase/lactate dehydrogenase coupled); conditions: Table 5; for IC50: assay not named, read-out: uM
T2 construct: purchased Panvera
T2 sequence (Q16539 whole entry): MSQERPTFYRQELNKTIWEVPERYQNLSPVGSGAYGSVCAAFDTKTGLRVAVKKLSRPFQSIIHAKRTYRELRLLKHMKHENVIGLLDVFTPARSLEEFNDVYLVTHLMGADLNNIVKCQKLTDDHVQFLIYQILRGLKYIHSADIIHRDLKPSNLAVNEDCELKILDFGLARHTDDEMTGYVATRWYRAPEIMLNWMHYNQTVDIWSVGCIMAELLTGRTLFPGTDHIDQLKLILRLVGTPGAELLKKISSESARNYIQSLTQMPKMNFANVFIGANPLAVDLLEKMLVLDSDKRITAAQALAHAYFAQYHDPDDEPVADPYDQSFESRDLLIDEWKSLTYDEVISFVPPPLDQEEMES

KDR kinase = KDR kinase (Homo sapiens, UniProt P35968, DEL940-989/E990V); assay: KDR kinase assay K1; conditions: read-out: Results, % @ concentration μM, Method K1; @ 10 μM
KDR kinase, sequence (P35968 with tags, fused parts or gaps DEL940-989/E990V): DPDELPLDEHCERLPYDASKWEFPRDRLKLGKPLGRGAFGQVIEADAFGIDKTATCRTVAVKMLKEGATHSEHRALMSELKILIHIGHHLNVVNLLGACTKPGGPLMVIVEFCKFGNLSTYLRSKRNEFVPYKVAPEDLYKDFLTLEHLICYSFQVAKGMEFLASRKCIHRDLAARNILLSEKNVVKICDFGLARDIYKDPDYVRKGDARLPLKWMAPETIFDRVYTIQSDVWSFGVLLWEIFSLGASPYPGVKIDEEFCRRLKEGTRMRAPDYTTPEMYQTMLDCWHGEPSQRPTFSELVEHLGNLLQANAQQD
Method: as §1

[2] = target: phosphorylated p-38-alpha kinase (Homo sapiens, UniProt Q16539); assay: P-38 alpha kinase assay P1; conditions: Method P1; for IC50: 2 h pre-incubation before ATP
phosphorylated p-38-alpha kinase, sequence (Q16539 1-360 isoform Q16539-2): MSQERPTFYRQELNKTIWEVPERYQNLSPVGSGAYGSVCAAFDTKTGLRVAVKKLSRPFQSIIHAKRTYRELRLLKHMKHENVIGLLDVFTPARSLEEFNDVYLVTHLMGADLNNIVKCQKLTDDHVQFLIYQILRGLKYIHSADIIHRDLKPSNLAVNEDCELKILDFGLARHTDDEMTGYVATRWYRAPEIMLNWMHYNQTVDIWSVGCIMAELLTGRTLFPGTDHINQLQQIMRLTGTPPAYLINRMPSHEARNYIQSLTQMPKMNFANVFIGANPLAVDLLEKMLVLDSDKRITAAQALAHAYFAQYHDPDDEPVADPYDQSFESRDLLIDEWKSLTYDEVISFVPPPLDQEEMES

[3] = read-out: Results, % @ concentration μM

Structure (SMILES): O=C(O)Cc1cccc(-n2nc(-c3ccc(F)cc3)cc2NC(=O)Nc2cccc(Cl)c2Cl)c1 [Example 431, 2-(3-(5-(3-(2,3-dichlorophenyl)ureido)-3-(4-fluorophenyl)-1H-pyrazol-1-yl)phenyl)acetic acid]
- inhibition at 10 µM (Abl kinase): 29%

Structure (SMILES): O=C(O)Cc1cccc(-n2nc(-c3cccs3)cc2NC(=O)Nc2cccc(Cl)c2Cl)c1 [Example 435, 2-(3-(5-(3-(2,3-dichlorophenyl)ureido)-3-(thiophen-2-yl)-1H-pyrazol-1-yl)phenyl)acetic acid]
- IC50 (B-Raf(V599E) kinase): 0.16 µM

Structure (SMILES): O=C(O)Cc1ccc(-n2nc(-c3ccccc3)cc2NC(=O)Nc2cccc(Cl)c2Cl)cc1 [Example 438, 2-(4-(5-(3-(2,3-dichlorophenyl)ureido)-3-phenyl-1H-pyrazol-1-yl)phenyl)acetic acid]
- IC50 [1]: 1.3 µM
- inhibition at 10 µM (KDR kinase): 39%

Structure (SMILES): O=C(O)Cc1ccc(-n2nc(-c3ccccc3F)cc2NC(=O)Nc2cccc(Cl)c2Cl)cc1 [Example 440, 2-(4-(5-(3-(2,3-dichlorophenyl)ureido)-3-(2-fluorophenyl)-1H-pyrazol-1-yl)phenyl)acetic acid]
- IC50 [1]: 0.92 µM
- IC50 [2]: 0.009 µM
- inhibition at 10 µM (KDR kinase): 56%

Structure (SMILES): O=C(O)Cc1ccc(-n2nc(-c3cccs3)cc2NC(=O)Nc2cccc(Cl)c2Cl)cc1 [Example 442, 2-(4-(5-(3-(2,3-dichlorophenyl)ureido)-3-(thiophen-2-yl)-1H-pyrazol-1-yl)phenyl)acetic acid]
- IC50 [1]: 3.01 µM
- inhibition at 10 µM (KDR kinase): 25%
- inhibition at 1 µM (B-Raf(V599E) kinase; [3]): 24%

Structure (SMILES): CC(C(=O)O)c1ccc(-n2nc(-c3cccs3)cc2NC(=O)Nc2cccc(Cl)c2Cl)cc1 (stereo not drawn) [Example 443, 2-(4-(5-(3-(2,3-dichlorophenyl)ureido)-3-(thiophen-2-yl)-1H-pyrazol-1-yl)phenyl)propanoic acid]
- IC50 [2]: 0.03 µM
- inhibition at 10 µM (KDR kinase): 33%
- inhibition at 1 µM (B-Raf(V599E) kinase; [3]): 20%

Structure (SMILES): O=C(O)Cc1ccc(-n2nc(-c3ccsc3)cc2NC(=O)Nc2cccc(Cl)c2Cl)cc1 [Example 444, 2-(4-(5-(3-(2,3-dichlorophenyl)ureido)-3-(thiophen-3-yl)-1H-pyrazol-1-yl)phenyl)acetic acid]
- IC50 [1]: 5 µM
- IC50 [2]: 0.006 µM
- inhibition at 1 µM (B-Raf(V599E) kinase; [3]): 42%

Structure (SMILES): COC(=O)Cc1ccc(-n2nc(-c3ccsc3)cc2NC(=O)Nc2cccc(Cl)c2Cl)cc1 [Example 445, methyl 2-(4-(5-(3-(2,3-dichlorophenyl)ureido)-3-(thiophen-3-yl)-1H-pyrazol-1-yl)phenyl)acetate]
- inhibition at 1 µM (B-Raf(V599E) kinase; [3]): 39%
- inhibition at 10 µM (Abl kinase): 30%

Structure (SMILES): NC(=O)Cc1cccc(-n2nc(-c3cccc(F)c3)cc2NC(=O)Nc2cccc(Cl)c2Cl)c1 [Example 449, 1-(1-(3-(2-amino-2-oxoethyl)phenyl)-3-(3-fluorophenyl)-1H-pyrazol-5-yl)-3-(2,3-dichlorophenyl)urea]
- IC50 [2]: 0.022 µM
- inhibition at 10 µM (KDR kinase): 33%

Structure (SMILES): NC(=O)Cc1cccc(-n2nc(-c3ccccc3F)cc2NC(=O)Nc2cccc(Cl)c2Cl)c1 [Example 450, 1-(1-(3-(2-amino-2-oxoethyl)phenyl)-3-(2-fluorophenyl)-1H-pyrazol-5-yl)-3-(2,3-dichlorophenyl)urea]
- % @ concentration, uM ([1]; @ 1 uM): 89%
- % @ concentration, uM ([1]; @ 10 uM): 192%
- IC50 [2]: 0.013 µM
- inhibition at 10 µM (KDR kinase): 45%

Structure (SMILES): NC(=O)Cc1cccc(-n2nc(-c3cccs3)cc2NC(=O)Nc2cccc(Cl)c2Cl)c1 [Example 451, 1-(1-(3-(2-amino-2-oxoethyl)phenyl)-3-(thiophen-2-yl)-1H-pyrazol-5-yl)-3-(2,3-dichlorophenyl)urea]
- % @ concentration, uM ([1]; @ 1 uM): 3% @1
- IC50 [2]: 0.008 µM
- IC50 (B-Raf(V599E) kinase): 0.84 µM

Structure (SMILES): CC(C(N)=O)c1cccc(-n2nc(-c3ccsc3)cc2NC(=O)Nc2cccc(Cl)c2Cl)c1 (stereo not drawn) [Example 453, 1-(1-(3-(1-amino-1-oxopropan-2-yl)phenyl)-3-(thiophen-3-yl)-1H-pyrazol-5-yl)-3-(2,3-dichlorophenyl)urea]
- inhibition at 10 µM (KDR kinase): 34%

Structure (SMILES): O=C(Cc1cccc(-n2nc(-c3ccccc3)cc2NC(=O)Nc2cccc(Cl)c2Cl)c1)NCCO [Example 454, 1-(2,3-dichlorophenyl)-3-(1-(3-(2-(2-hydroxyethylamino)-2-oxoethyl)phenyl)-3-phenyl-1H-pyrazol-5-yl)urea]
- inhibition at 10 µM (KDR kinase): 27%

Structure (SMILES): O=C(Cc1cccc(-n2nc(-c3cccc(F)c3)cc2NC(=O)Nc2cccc(Cl)c2Cl)c1)NCCO [Example 455, 1-(2,3-dichlorophenyl)-3-(3-(3-fluorophenyl)-1-(3-(2-(2-hydroxyethylamino)-2-oxoethyl)phenyl)-1H-pyrazol-5-yl)urea]
- IC50 [1]: 0.1 µM
- IC50 [2]: 0.018 µM
- inhibition at 1 µM (B-Raf(V599E) kinase; [3]): 30%

Structure (SMILES): O=C(Cc1cccc(-n2nc(-c3ccccc3F)cc2NC(=O)Nc2cccc(Cl)c2Cl)c1)NCCO [Example 456, 1-(2,3-dichlorophenyl)-3-(3-(2-fluorophenyl)-1-(3-(2-(2-hydroxyethylamino)-2-oxoethyl)phenyl)-1H-pyrazol-5-yl)urea]
- IC50 [1]: 0.04 µM
- IC50 [2]: 0.015 µM
- inhibition at 10 µM (KDR kinase): 53%

Structure (SMILES): O=C(Cc1cccc(-n2nc(-c3cccs3)cc2NC(=O)Nc2cccc(Cl)c2Cl)c1)NCCO [Example 457, 1-(2,3-dichlorophenyl)-3-(1-(3-(2-(2-hydroxyethylamino)-2-oxoethyl)phenyl)-3-(thiophen-2-yl)-1H-pyrazol-5-yl)urea]
- IC50 [1]: 1.1 µM
- IC50 [2]: 0.008 µM
- inhibition at 10 µM (KDR kinase): 31%

Structure (SMILES): O=C(Cc1cccc(-n2nc(-c3ccsc3)cc2NC(=O)Nc2cccc(Cl)c2Cl)c1)NCCO [Example 458, 1-(2,3-dichlorophenyl)-3-(1-(3-(2-(2-hydroxyethylamino)-2-oxoethyl)phenyl)-3-(thiophen-3-yl)-1H-pyrazol-5-yl)urea]
- IC50 [1]: 1 µM
- IC50 [2]: 0.007 µM
- inhibition at 1 µM (B-Raf(V599E) kinase; [3]): 28%

Structure (SMILES): O=C(Cc1cccc(-n2nc(-c3cccs3)cc2NC(=O)Nc2cccc(Cl)c2Cl)c1)NCC(O)CO (stereo not drawn) [Example 460, 1-(2,3-dichlorophenyl)-3-(1-(3-(2-(2,3-dihydroxypropylamino)-2-oxoethyl)phenyl)-3-(thiophen-2-yl)-1H-pyrazol-5-yl)urea]
- IC50 [2]: 0.008 µM
- inhibition at 10 µM (KDR kinase): 26%
- IC50 (B-Raf(V599E) kinase): 2.4 µM

Structure (SMILES): O=C(Cc1cccc(-n2nc(-c3ccccc3F)cc2NC(=O)Nc2cccc(Cl)c2Cl)c1)NC(CO)CO [Example 461, 1-(2,3-dichlorophenyl)-3-(1-(3-(2-(1,3-dihydroxypropan-2-ylamino)-2-oxoethyl)phenyl)-3-(2-fluorophenyl)-1H-pyrazol-5-yl)urea]
- IC50 [1]: 0.017 µM
- IC50 [2]: 0.03 µM
- inhibition at 10 µM (KDR kinase): 33%
- inhibition at 10 µM (B-Raf(V599E) kinase; [3]): 28%

Structure (SMILES): O=C(Cc1cccc(-n2nc(-c3cccs3)cc2NC(=O)Nc2cccc(Cl)c2Cl)c1)NC(CO)CO [Example 462, 1-(2,3-dichlorophenyl)-3-(1-(3-(2-(1,3-dihydroxypropan-2-ylamino)-2-oxoethyl)phenyl)-3-(thiophen-2-yl)-1H-pyrazol-5-yl)urea]
- IC50 [2]: 0.008 µM
- inhibition at 10 µM (KDR kinase): 25%
- inhibition at 1 µM (B-Raf(V599E) kinase; [3]): 43%

Structure (SMILES): NC(=O)Cc1ccc(-n2nc(-c3cccs3)cc2NC(=O)Nc2cccc(Cl)c2Cl)cc1 [Example 468, 1-(1-(4-(2-amino-2-oxoethyl)phenyl)-3-(thiophen-2-yl)-1H-pyrazol-5-yl)-3-(2,3-dichlorophenyl)urea]
- IC50 [1]: 0.0086 µM
- IC50 [2]: 0.009 µM
- IC50 (B-Raf(V599E) kinase): 1.2 µM

Structure (SMILES): O=C(Cc1ccc(-n2nc(-c3ccccc3)cc2NC(=O)Nc2cccc(Cl)c2Cl)cc1)NCCO [Example 470, 1-(2,3-dichlorophenyl)-3-(1-(4-(2-(2-hydroxyethylamino)-2-oxoethyl)phenyl)-3-phenyl-1H-pyrazol-5-yl)urea]
- IC50 [1]: 0.005 µM
- inhibition at 10 µM (Abl kinase): 15%

Structure (SMILES): O=C(Cc1ccc(-n2nc(-c3cccs3)cc2NC(=O)Nc2cccc(Cl)c2Cl)cc1)NC(CO)CO [Example 474, 1-(2,3-dichlorophenyl)-3-(1-(4-(2-(1,3-dihydroxypropan-2-ylamino)-2-oxoethyl)phenyl)-3-(thiophen-2-yl)-1H-pyrazol-5-yl)urea]
- IC50 [1]: 0.38 µM
- IC50 [2]: 0.013 µM

Structure (SMILES): O=C(Nc1cccc(Cl)c1Cl)Nc1cc(-c2ccccc2)nn1-c1cccc(CO)c1 [Example 484, 1-(2,3-dichlorophenyl)-3-(1-(3-(hydroxymethyl)phenyl)-3-phenyl-1H-pyraol-5-yl)urea]
- IC50 [2]: 0.009 µM
- inhibition at 10 µM (KDR kinase): 37%
- IC50 (B-Raf(V599E) kinase): 7.4 µM

Structure (SMILES): O=C(Nc1cccc(Cl)c1Cl)Nc1cc(-c2ccccc2F)nn1-c1cccc(CO)c1 [Example 485, 1-(2,3-dichlorophenyl)-3-(3-(2-fluorophenyl)-1-(3-(hydroxymethyl)phenyl)-1H-pyrazol-5-yl)urea]
- IC50 [1]: 0.05 µM
- inhibition at 10 µM (KDR kinase): 79%

Structure (SMILES): CC(C)(C)c1cc(NC(=O)Nc2cccc(-c3cnccn3)c2)n(-c2cccc(CC(N)=O)c2)n1 [Example 509, 1-(1-(3-(2-amino-2-oxoethyl)phenyl)-3-tert-butyl-1H-pyrazol-5-yl)-3-(3-(pyrazin-2-yl)phenyl)urea]
- IC50 [1]: 0.5 µM
- Results, % @ concentration μM ([2]; @ 1.0 μM): 57% @1.0
- IC50 (B-Raf(V599E) kinase): 0.28 µM
